Data reported in PubChem BioAssay AID330 (DTP/NCI, 2004).
Values joined by “and” are separate entries in the source; they are usually repeats but may differ in a detail not shown here. Identical values can stand only once. Inconclusive results and toxic doses are left out. The calls were made as follows: active = survival T/C of 150% or more; inactive = T/C below 125% in these data.

System: P388 leukemia ip, CD2F1 mice, survival T/C
Experiment: NCI In Vivo Anticancer Drug Screen. Data for tumor model P388 Leukemia (intraperitoneal) in CD2F1 (CDF1) mice
Details: endpoint: median survival time, higher = longer survival
In short: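 Mice carrying the transplanted tumor received test compound or vehicle. Survival was recorded in each group, and the value is the treated-group measurement divided by that of the vehicle-treated control group.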

[1] = dose: 100.0 mg/kg/injection, schedule: Q04DX003 (ip), vehicle: Klucel (hydroxypropylcellulose) (HPC)
[2] = dose: 200.0 mg/kg/injection, schedule: Q04DX003 (ip), vehicle: Klucel (hydroxypropylcellulose) (HPC)
[3] = dose: 50.0 mg/kg/injection, schedule: Q01DX009 (ip), vehicle: Klucel (hydroxypropylcellulose) (HPC)
[4] = dose: 100.0 mg/kg/injection, schedule: Q01DX009 (ip), vehicle: Klucel (hydroxypropylcellulose) (HPC)
[5] = dose: 200.0 mg/kg/injection, schedule: Q01DX009 (ip), vehicle: Klucel (hydroxypropylcellulose) (HPC)
[6] = dose: 60.0 mg/kg/injection, schedule: Q01DX005 (ip), vehicle: saline with Tween-80
[7] = dose: 120.0 mg/kg/injection, schedule: Q01DX005 (ip), vehicle: saline with Tween-80
[8] = dose: 50.0 mg/kg/injection, schedule: Q01DX005 (ip), vehicle: saline with Tween-80
[9] = dose: 100.0 mg/kg/injection, schedule: Q01DX005 (ip), vehicle: saline with Tween-80
[10] = dose: 200.0 mg/kg/injection, schedule: Q01DX005 (ip), vehicle: saline with Tween-80
[11] = dose: 50.0 mg/kg/injection, schedule: Q01DX005 (ip), vehicle: Klucel (hydroxypropylcellulose) (HPC)
[12] = dose: 100.0 mg/kg/injection, schedule: Q01DX005 (ip), vehicle: Klucel (hydroxypropylcellulose) (HPC)
[13] = dose: 200.0 mg/kg/injection, schedule: Q01DX005 (ip), vehicle: Klucel (hydroxypropylcellulose) (HPC)
[14] = dose: 50.0 mg/kg/injection, schedule: Q01DX005 (ip), vehicle: saline
[15] = dose: 50.0 mg/kg/injection, schedule: Q01DX009 (ip), vehicle: saline with Tween-80
[16] = dose: 100.0 mg/kg/injection, schedule: Q01DX009 (ip), vehicle: saline with Tween-80
[17] = dose: 200.0 mg/kg/injection, schedule: Q01DX009 (ip), vehicle: saline with Tween-80
[18] = dose: 60.0 mg/kg/injection, schedule: Q01DX005 (ip), vehicle: Klucel (hydroxypropylcellulose) (HPC)
[19] = dose: 25.0 mg/kg/injection, schedule: Q01DX005 (ip), vehicle: saline
[20] = dose: 25.0 mg/kg/injection, schedule: Q01DX005 (ip), vehicle: saline with Tween-80

Measured: T/C

CN(C)C(=O)C1OC1(C)c1ccccc1 (stereo not drawn)
inactive: [1] 103 % of control | [2] 108 % of control | dose: 400.0 mg/kg/injection, schedule: Q04DX003 (ip), vehicle: Klucel (hydroxypropylcellulose) (HPC) 117 % of control

CN1C(=O)CC2(C)C1=CCc1scnc12 (stereo not drawn)
inactive: dose: 7.5 mg/kg/injection, schedule: Q01DX005 (ip), vehicle: saline with Tween-80 94 % of control | dose: 15.0 mg/kg/injection, schedule: Q01DX005 (ip), vehicle: saline with Tween-80 99 % of control | dose: 30.0 mg/kg/injection, schedule: Q01DX005 (ip), vehicle: saline with Tween-80 99 % of control

CP1(=S)C=C(N2CCCC2)CC1 (stereo not drawn)
inactive: [3] 107 % of control and 109 % of control | [4] 99 % of control and 120 % of control | [5] 104 % of control and 95 % of control

CC(=O)c1c(CO[N+](=O)[O-])n([O-])c2ccccc2[n+]1=O
inactive: [6] 106 % of control | [7] 104 % of control

O=C1C(c2ccccc2)=C(c2ccccc2)C(=O)N1c1ccccn1
inactive: [3] 94 % of control | [4] 105 % of control | [5] 103 % of control

CC(=O)O[C@H]1C(=O)C=C[C@H](C)[C@@H]2CC[C@H](OC(C)(C)C)[C@@]12C
inactive: [8] 102 % of control | [9] 98 % of control | [10] 108 % of control

COC1C(C2CC(=O)NC(=O)C2)OC2OC(C)(C)OC21 (stereo not drawn)
inactive: [8] 104 % of control | [9] 107 % of control | [10] 104 % of control

CCn1ccc(NS(=O)(=O)c2ccc(N)cc2)nc1=O
inactive: [11] 98 % of control | [12] 105 % of control | [13] 100 % of control

O=C1OCC23CCC4C1C42CC1(CC3)OCCO1 (stereo not drawn)
inactive: [14] 99 % of control | dose: 100.0 mg/kg/injection, schedule: Q01DX005 (ip), vehicle: saline 101 % of control | dose: 200.0 mg/kg/injection, schedule: Q01DX005 (ip), vehicle: saline 98 % of control

CCCC(C(CC)CNC(=O)Nc1cccc2ccccc12)N(C)C(=O)Nc1cccc2ccccc12 (stereo not drawn)
inactive: [15] 93 % of control | [16] 92 % of control | [17] 94 % of control | dose: 400.0 mg/kg/injection, schedule: Q01DX009 (ip), vehicle: saline with Tween-80 99 % of control

O=[N+]([O-])c1ccc2nccc(Cl)c2c1
inactive: dose: 12.5 mg/kg/injection, schedule: Q01DX009 (ip), vehicle: Klucel (hydroxypropylcellulose) (HPC) 95 % of control | dose: 25.0 mg/kg/injection, schedule: Q01DX009 (ip), vehicle: Klucel (hydroxypropylcellulose) (HPC) 100 % of control

CCOC(=O)c1ccc(NC(=O)Nc2ncc(Cl)cc2Cl)cc1
inactive: [15] 89 % of control | [16] 86 % of control | [17] 94 % of control

OCc1c(-c2ccccc2)c(-c2ccccc2)c2n1CCC2
inactive: [8] 103 % of control | [9] 92 % of control | [10] 99 % of control

O=C(NCc1ccco1)Nc1c(Cl)cc(Cl)cc1Cl
inactive: [6] 103 % of control | [7] 100 % of control | dose: 240.0 mg/kg/injection, schedule: Q01DX005 (ip), vehicle: saline with Tween-80 100 % of control

NOCc1csc(N)n1
inactive: dose: 75.0 mg/kg/injection, schedule: Q01DX009 (ip), vehicle: saline 91 % of control | dose: 150.0 mg/kg/injection, schedule: Q01DX009 (ip), vehicle: saline 91 % of control | dose: 300.0 mg/kg/injection, schedule: Q01DX009 (ip), vehicle: saline 91 % of control

CCOC(=O)CC(O)(c1ccc2c(c1)OCO2)c1cc(OC)c(OC)c(OC)c1 (stereo not drawn)
inactive: dose: 12.5 mg/kg/injection, schedule: Q01DX005 (ip), vehicle: Klucel (hydroxypropylcellulose) (HPC) 100 % of control | dose: 25.0 mg/kg/injection, schedule: Q01DX005 (ip), vehicle: Klucel (hydroxypropylcellulose) (HPC) 94 % of control | [11] 94 % of control | [12] 89 % of control | [13] 88 % of control

CC(C)(C)c1ccc(-c2nnc(C(F)(F)F)nn2)cc1
inactive: [15] 100 % of control | [16] 100 % of control | [17] 108 % of control

CN1Cc2cc(Cl)ccc2N(C)Cc2cc(Cl)ccc21
inactive: [8] 101 % of control | [9] 90 % of control | [10] 92 % of control

CCCN=Cc1ccccc1O.CCCN=Cc1ccccc1O.[Cu]
inactive: dose: 3.75 mg/kg/injection, schedule: Q01DX005 (ip), vehicle: Klucel (hydroxypropylcellulose) (HPC) 100 % of control | dose: 7.5 mg/kg/injection, schedule: Q01DX005 (ip), vehicle: Klucel (hydroxypropylcellulose) (HPC) 104 % of control | dose: 15.0 mg/kg/injection, schedule: Q01DX005 (ip), vehicle: Klucel (hydroxypropylcellulose) (HPC) 97 % of control | dose: 30.0 mg/kg/injection, schedule: Q01DX005 (ip), vehicle: Klucel (hydroxypropylcellulose) (HPC) 92 % of control and 97 % of control | [18] 108 % of control and 115 % of control

O=[N+]([O-])c1cc2c([N+](=O)[O-])cccc2o1
inactive: [1] 102 % of control | [2] 103 % of control

C=C(Cl)CSC(=S)N1CCOCC1
inactive: [8] 101 % of control and 102 % of control and 96 % of control | [9] 105 % of control and 107 % of control and 109 % of control | [10] 101 % of control and 120 % of control and 97 % of control

O=C1CC(c2ccccc2)C(c2ccccc2)C1=O (stereo not drawn)
inactive: dose: 12.5 mg/kg/injection, schedule: Q04DX003 (ip), vehicle: Klucel (hydroxypropylcellulose) (HPC) 107 % of control | dose: 25.0 mg/kg/injection, schedule: Q04DX003 (ip), vehicle: Klucel (hydroxypropylcellulose) (HPC) 102 % of control | dose: 50.0 mg/kg/injection, schedule: Q04DX003 (ip), vehicle: Klucel (hydroxypropylcellulose) (HPC) 102 % of control

CC1(C)N=C(N)N=C(N)N1c1ccc(Cl)cc1
inactive: dose: 12.5 mg/kg/injection, schedule: Q01DX005 (ip), vehicle: saline 103 % of control | [19] 117 % of control | [14] 124 % of control

O=C1CC2CCCCC2CC1c1ccccc1 (stereo not drawn)
inactive: [3] 104 % of control | [4] 88 % of control | [5] 95 % of control

Cc1ccc2nc(C[n+]3cccc4ccccc43)ccc2c1
inactive: dose: 0.38 mg/kg/injection, schedule: Q01DX005 (ip), vehicle: saline 107 % of control | dose: 0.75 mg/kg/injection, schedule: Q01DX005 (ip), vehicle: saline with Tween-80 113 % of control | dose: 0.75 mg/kg/injection, schedule: Q01DX005 (ip), vehicle: saline 115 % of control and 122 % of control | dose: 1.5 mg/kg/injection, schedule: Q01DX005 (ip), vehicle: saline with Tween-80 115 % of control | dose: 1.5 mg/kg/injection, schedule: Q01DX005 (ip), vehicle: saline 116 % of control | dose: 3.0 mg/kg/injection, schedule: Q01DX005 (ip), vehicle: saline with Tween-80 100 % of control | dose: 3.0 mg/kg/injection, schedule: Q01DX005 (ip), vehicle: saline 114 % of control and 116 % of control | dose: 3.12 mg/kg/injection, schedule: Q01DX005 (ip), vehicle: saline with Tween-80 117 % of control

Cc1ccsc1C(=O)c1ccccc1
inactive: [11] 99 % of control | [12] 94 % of control | [13] 96 % of control

COc1cccc(C(=O)CCN(C)C(=O)OCc2ccccc2)c1OCc1ccccc1
inactive: [20] 94 % of control | [8] 103 % of control | [9] 103 % of control

CCOc1c(N=Nc2ccc(Cl)cc2)c(C)nn1C(N)=S
inactive: [18] 112 % of control | dose: 120.0 mg/kg/injection, schedule: Q01DX005 (ip), vehicle: Klucel (hydroxypropylcellulose) (HPC) 112 % of control | dose: 240.0 mg/kg/injection, schedule: Q01DX005 (ip), vehicle: Klucel (hydroxypropylcellulose) (HPC) 112 % of control

CCCCN(CC(O)CNc1cc(OC)cc2cccnc12)C(C)CC (stereo not drawn)
inactive: dose: 6.25 mg/kg/injection, schedule: Q01DX005 (ip), vehicle: saline with Tween-80 95 % of control | dose: 12.5 mg/kg/injection, schedule: Q01DX005 (ip), vehicle: saline with Tween-80 91 % of control | [20] 100 % of control | [19] 92 % of control

CNC(=O)N=Nc1ccccc1
inactive: dose: 50.0 mg/kg/injection, schedule: Q01DX005 (ip), vehicle: saline + Tween-80 + alcohol 100 % of control | dose: 100.0 mg/kg/injection, schedule: Q01DX005 (ip), vehicle: saline + Tween-80 + alcohol 100 % of control | dose: 200.0 mg/kg/injection, schedule: Q01DX005 (ip), vehicle: saline + Tween-80 + alcohol 100 % of control
